Results on 23 compounds are retold here after patent EP1322622B1, “NEW N, N'-DISUBSTITUTED BENZIMIDAZOLONE DERIVATIVES WITH AFFINITY AT THE SEROTONIN AND DOPAMINE RECEPTORS” (Sprout Pharmaceuticals, Inc., priority 2000, dated 2002).

One experiment concerns the target T1, CHO/5-HT1A cells (Homo sapiens, UniProt P08908).
T1 construct: expressed in transfected cells; host or cells: CHO/5-HT1A cells
T1 sequence (P08908 1-422): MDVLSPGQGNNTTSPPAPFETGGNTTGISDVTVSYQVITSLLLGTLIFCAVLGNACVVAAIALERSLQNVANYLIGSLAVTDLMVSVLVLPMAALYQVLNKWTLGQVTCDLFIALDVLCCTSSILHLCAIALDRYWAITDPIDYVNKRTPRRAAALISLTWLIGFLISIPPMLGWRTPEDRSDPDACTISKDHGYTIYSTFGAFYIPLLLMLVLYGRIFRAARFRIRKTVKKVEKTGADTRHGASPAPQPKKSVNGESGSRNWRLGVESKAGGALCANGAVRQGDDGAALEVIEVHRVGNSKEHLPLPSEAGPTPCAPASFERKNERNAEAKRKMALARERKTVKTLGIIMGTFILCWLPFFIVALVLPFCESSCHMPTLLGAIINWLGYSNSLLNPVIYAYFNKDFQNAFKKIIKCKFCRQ
In words: 5-HT1A Functional assay (cAMP). The class given is cell-based. The settings on record: 10 µM compound, % inhibition of the cAMP accumulation induced by 10 µM FSK; for inhibition at 10 µM: read-out: 5-HT1A cAMP % inhib. How it is done:
CHO/5-HT1A cells were random seeded at a density of about 200,000/well in 24 well plates the day prior to the experiment. On the day of the experiment, cells were pretreated for 15 min at 37 °C with 500 µM isobuthylmethylxantine (IBMX) dissolved in culture medium without serum. Wells were then divided in different groups in duplicate as follows: control, 10 µM FSK, 10 µM FSK + 1 µM 5-HT as positive standard and 10 µM FSK + 10 µM of the different compound under evaluation. Sample solutions were added and incubated for additional 15 min at 37 °C. After incubation, medium was aspirated and the reaction stopped by adding 200 µl of lysis buffer. Plates were shaken for 5 min, then the lysate was removed and samples were stored at 4 °C until the day of the assay. For the cAMP evaluation, samples were properly diluted and the cAMP content was measured by an enzymeimmunoassay system.
(Cyclic AMP is a second messenger, typically raised through Gs and lowered through Gi signalling.)

A further experiment deals with T2, 5-HT1A human receptors (Homo sapiens, UniProt P08908).
T2 construct: expressed in transfected cells; host or cells: CHO cells
T2 sequence (P08908 1-422): T1 sequence (P08908 1-422)
In words: 5-HT1A Radioligand Receptor Binding Assay ([3H]-8-OH-DPAT, CHO cell membranes). The settings on record: compound at 10^-7 M, singlicate; [3H]-8-OH-DPAT 0.6-0.7 nM; read-out: 5-HT1A receptor binding assay % inhib. (10^-7 M). On the procedure:
Membranes from CHO cells, expressing 5-HT1A human receptors were suspended in incubation buffer.
The compounds were tested in singlicate at one concentration (10^-7 M) in a total volume of 1000 µl. 980 µl of diluted membranes, 10 µl DMSO or unlabelled ligand and 10 µl of [^3H]-8-OH-DPAT (0.6-0.7 nM) were incubated for 60 min at 27 °C. The reaction was stopped by rapid filtration through Tomtec cell Harvester (48 wells) using Filtermat B (presoaked in 0.1% PEI) filters. […] Non specific binding was determined in the presence of 5-HT (10^-5 M).
(§1) The specific radioligand binding to the receptor was defined by the difference between total binding and non specific binding, determined in the presence of an excess of unlabelled ligand. Results were expressed as percentage of control specific binding obtained in the presence of the compounds.
The affinity values (IC50) for the compounds were obtained by a non linear least squares regression analysis on the basis of a one binding site model.

The target in another experiment is T3, D4 human receptors (Homo sapiens, UniProt P21917).
T3 construct: expressed in transfected cells; host or cells: CHO cells
T3 sequence (P21917 1-419): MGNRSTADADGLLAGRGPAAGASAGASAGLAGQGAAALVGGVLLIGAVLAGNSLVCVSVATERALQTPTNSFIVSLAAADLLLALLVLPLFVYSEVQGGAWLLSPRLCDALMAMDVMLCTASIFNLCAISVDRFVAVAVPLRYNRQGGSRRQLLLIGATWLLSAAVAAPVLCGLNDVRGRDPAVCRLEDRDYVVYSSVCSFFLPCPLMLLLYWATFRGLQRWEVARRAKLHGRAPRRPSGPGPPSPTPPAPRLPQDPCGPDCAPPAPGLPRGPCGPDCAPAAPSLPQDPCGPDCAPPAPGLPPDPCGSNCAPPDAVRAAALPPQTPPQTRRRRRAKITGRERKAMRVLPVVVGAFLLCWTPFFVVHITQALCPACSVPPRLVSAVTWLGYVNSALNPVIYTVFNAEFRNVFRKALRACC
In words: D4 Radioligand Receptor Binding Assay ([3H] YM-09151-2, CHO cell membranes). The settings on record: compound at 10^-7 M, singlicate; [3H] YM-09151-2 0.15-0.25 nM; read-out: D4 receptor binding assay % inhib. (10^-7 M). How it is done: Membranes from CHO cells, expressing D4 human receptors were suspended in incubation buffer.
Binding assays were performed in MultiProbe 204 pipetting system (Packard), according to a predetermined mapping, consistent with the software Screen. The compounds were tested in singlicate at one concentration (10^-7 M) in a total volume of 1000 µl (980 µl of diluted membranes, 10 µl DMSO or unlabelled ligand and 10 µl of [^3H] YM-09151-2 (0.15-0.25 nM). After incubation for 120 min at 27 °C, the reaction was stopped by rapid filtration through Tomtec cell Harvester (48 wells) using Filtermat B (presoaked in 0.1% PEI) filters. Filters were washed with ice-cold 50 mM Tris-HCl (pH 7.4) buffer (9 x 700 µl), dryed, covered with MeltiLex B/HS (Wallac) scintillator sheets and heated in oven at 80-90 °C for about 10 min, transferred into plastic sample bags (Wallac), sealed and put into 1024 Beta Plate scintillation counter (Wallac). Non specific binding was determined in the presence of clozapine dissolved in DMSO to a final concentration of 10^-5 M.
as §1

SMILES strings stand for the structures.

For `O=c1n(C/C=C\CN2CCN(c3cccc(Cl)c3)CC2)c2ccccc2n1CCN1CCOCC1` [compound 263], the inhibition at 10 µM on CHO/5-HT1A cells amounted to 63%.

On to `COCCn1c(=O)n(CC=CCN2CCN(c3cccc(C(F)(F)F)c3)CC2)c2ccccc21` [compound 284], for which the inhibition at 10 µM on CHO/5-HT1A cells was 82%.

On to `COCCn1c(=O)n(C/C=C/CN2CCN(c3ccccn3)CC2)c2ccccc21` [compound 296], for which the inhibition at 10 µM at CHO/5-HT1A cells worked out at 82%.

In the case of `COCCn1c(=O)n(C/C=C/CN2CCN(c3cccc(Cl)c3)CC2)c2ccccc21` [compound 297], on CHO/5-HT1A cells, the inhibition at 10 µM was found to be 74%.

For the compound `COCCn1c(=O)n(CC=CCN2CCN(c3cccc(C(F)(F)F)c3)CC2)c2ccccc21` [compound 301], the “5-HT1A cAMP % inhib.” value on CHO/5-HT1A cells was determined as 83%.

As to `O=c1n(C/C=C\CN2CCc3c([nH]c4ccccc34)C2)c2ccccc2n1CCN1CCCCC1` [compound 316], the inhibition at 0.1 µM turned out to be 72% on 5-HT1A human receptors and 94% on D4 human receptors.

For the compound `O=c1n(C/C=C\CN2CC=C(c3ccccc3)CC2)c2ccccc2n1CCN1CCCCC1` [compound 319], the inhibition at 0.1 µM came out at 94% on 5-HT1A human receptors and 70% on D4 human receptors.

Consider `O=c1n(C/C=C/CN2CCN(c3ccccn3)CC2)c2ccccc2n1CCN1CCOCC1` [compound 347], for which the inhibition at 10 µM at CHO/5-HT1A cells is 65%.

As for `O=c1n(C/C=C/CN2CCN(c3cccc(Cl)c3)CC2)c2ccccc2n1CCN1CCOCC1` [compound 348], the results for the inhibition at 0.1 µM at 5-HT1A human receptors and at D4 human receptors were 99% and 51%, respectively.

In the case of `O=c1n(C/C=C/CN2CCN(c3cccc(C(F)(F)F)c3)CC2)c2ccccc2n1CCN1CCOCC1` [compound 352], at CHO/5-HT1A cells, the inhibition at 10 µM came to 79%.

In the case of `O=c1n(C/C=C\CN2CCN(c3ccccc3)CC2)c2ccccc2n1CCO` [compound 361], the inhibition at 0.1 µM at 5-HT1A human receptors amounted to 86%; on D4 human receptors it was 46%.

In the case of `O=c1n(C/C=C\CN2CCN(c3ccccn3)CC2)c2ccccc2n1CCO` [compound 364], the values for the inhibition at 0.1 µM at 5-HT1A human receptors and at D4 human receptors were 77% and 36%, respectively.

`O=c1n(C/C=C\CN2CCc3c([nH]c4ccccc34)C2)c2ccccc2n1CCO` [compound 367]: the inhibition at 0.1 µM was determined as 61% on 5-HT1A human receptors and 90% on D4 human receptors.

`O=c1n(C/C=C\CN2CCN(c3ccc(Cl)c(Cl)c3)CC2)c2ccccc2n1CCO` [compound 371]: the inhibition at 0.1 µM turned out to be 59% at 5-HT1A human receptors and 95% at D4 human receptors.

In the case of `O=c1n(C/C=C/CN2CCN(c3ccccc3)CC2)c2ccccc2n1CCO` [compound 378], the inhibition at 0.1 µM at 5-HT1A human receptors is 77%; on D4 human receptors, 35%.

As to `O=c1n(C/C=C/CN2CCN(c3ccccn3)CC2)c2ccccc2n1CCO` [compound 381], on CHO/5-HT1A cells, the inhibition at 10 µM turned out to be 79%.

On to `CCNC(=O)OCCn1c(=O)n(C/C=C\CN2CCN(c3ccccc3)CC2)c2ccccc21` [compound 395], for which the inhibition at 0.1 µM was found to be 86% on 5-HT1A human receptors and 32% at D4 human receptors.

`CCNC(=O)OCCn1c(=O)n(CC=CCN2CCN(c3cccc(C(F)(F)F)c3)CC2)c2ccccc21` [compound 403]: the inhibition at 10 µM at CHO/5-HT1A cells is 84%.

With `CCNC(=O)OCCn1c(=O)n(C/C=C/CN2CCN(c3ccccc3)CC2)c2ccccc21` [compound 412], the inhibition at 0.1 µM on 5-HT1A human receptors came to 93%; at D4 human receptors it was 39%.

`CS(=O)(=O)NCCn1c(=O)n(C/C=C\CN2CCc3c([nH]c4ccccc34)C2)c2ccccc21` [compound 501]: the results for the inhibition at 0.1 µM on 5-HT1A human receptors and at D4 human receptors were 70% and 63%, respectively.

With `CS(=O)(=O)NCCn1c(=O)n(C/C=C\CN2CCN(c3ccc(Cl)c(Cl)c3)CC2)c2ccccc21` [compound 505], the results for the inhibition at 0.1 µM on 5-HT1A human receptors and at D4 human receptors were 78% and 58%, respectively.

Regarding `CS(=O)(=O)NCCn1c(=O)n(C/C=C/CN2CCN(c3ccc(Cl)c(Cl)c3)CC2)c2ccccc21` [compound 527], the figures for the inhibition at 0.1 µM on 5-HT1A human receptors and at D4 human receptors were 73% and 36%, respectively.

As to `COc1ccccc1N1CCN(C/C=C/Cn2c(=O)n(CCNS(C)(=O)=O)c3ccccc32)CC1` [compound 535], the inhibition at 0.1 µM stood at 97% at 5-HT1A human receptors and 39% at D4 human receptors.
